# Measured values published in patent US20260132132A1, “3A,4,5,6-TETRAHYDRO-1 H-PYRAZOLO[3,4-C]PYRIDIN-7(7AH)-ONE DERIVATIVES AS FACTOR XIIA INHIBITORS” (KALVISTA PHARMACEUTICALS LIMITED, priority 2022, published 2026).
# Experiments:
# [1] = target: T1, Human Factor XIIa (hFXIIa) (Homo sapiens, UniProt P00748); experiment: Determination of Human Factor XIIa (hFXIIa) inhibition, fluorogenic substrate IC50 assay; format: biochemical; details: fluorogenic substrate H-DPro-Phe-Arg-AFC at Km, 25° C., read-out: Human FXIIa IC50
# T1 construct: purchased Enzyme Research Laboratories
# T1 sequence (P00748 373-615 limits assumed): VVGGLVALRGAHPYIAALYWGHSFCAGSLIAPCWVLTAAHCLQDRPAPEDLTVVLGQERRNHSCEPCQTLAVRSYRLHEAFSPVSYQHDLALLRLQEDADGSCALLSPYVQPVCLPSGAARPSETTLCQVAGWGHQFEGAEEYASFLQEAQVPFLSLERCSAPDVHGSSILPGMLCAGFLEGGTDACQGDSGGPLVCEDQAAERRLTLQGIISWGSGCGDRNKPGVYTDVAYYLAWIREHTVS
# T1 sequence (P00748 20-372 partner limits assumed): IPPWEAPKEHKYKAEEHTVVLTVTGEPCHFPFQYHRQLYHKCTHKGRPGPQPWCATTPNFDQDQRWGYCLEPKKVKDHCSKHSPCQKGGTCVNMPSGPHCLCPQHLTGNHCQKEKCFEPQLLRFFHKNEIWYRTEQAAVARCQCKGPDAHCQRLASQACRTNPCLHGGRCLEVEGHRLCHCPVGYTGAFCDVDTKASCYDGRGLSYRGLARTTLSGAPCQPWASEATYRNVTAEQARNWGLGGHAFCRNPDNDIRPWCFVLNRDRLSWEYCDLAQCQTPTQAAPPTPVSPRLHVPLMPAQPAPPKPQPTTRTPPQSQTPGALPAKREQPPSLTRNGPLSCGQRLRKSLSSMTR
# Method: Determination of Human Factor XIIa (hFXIIa) inhibition
# The Km for the cleavage of the substrate by hFXIIa was determined by standard transformation of the Michaelis-Menten equation, with subsequent inhibition assays performed at substrate Km concentration.
# FXa = FXa (Homo sapiens, UniProt P00742); experiment: Related protease inhibition: FXa, fluorogenic substrate; format: biochemical; details: fluorogenic substrate at Km, 25° C.; H1-H3 = % activity at 40 μM
# FXa, sequence (P00742 235-488 limits assumed): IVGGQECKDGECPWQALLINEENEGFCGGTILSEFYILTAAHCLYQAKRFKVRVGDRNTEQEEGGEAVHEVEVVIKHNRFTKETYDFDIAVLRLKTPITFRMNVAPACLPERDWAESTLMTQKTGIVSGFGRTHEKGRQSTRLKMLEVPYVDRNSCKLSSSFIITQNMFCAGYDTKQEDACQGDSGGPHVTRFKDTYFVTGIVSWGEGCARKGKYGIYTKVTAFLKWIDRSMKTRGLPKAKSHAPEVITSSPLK
# FXa, sequence (P00742 41-179 partner limits assumed): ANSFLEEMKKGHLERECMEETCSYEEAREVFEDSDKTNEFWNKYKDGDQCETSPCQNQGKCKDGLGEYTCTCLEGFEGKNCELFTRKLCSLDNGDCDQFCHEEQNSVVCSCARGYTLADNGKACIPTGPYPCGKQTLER
# Method: Human serine protease enzyme Plasma Kallikrein, KLK1, FXa, Plasmin, Thrombin and Trypsin were assayed for enzymatic activity using an appropriate fluorogenic substrate at Km concentration, FXIa at fixed substrate concentration of 100 μM and various concentrations of the test compound.
Compound,IC50 [1] [nM],IC50 (FXa) [µM]
"CCNC(=O)c1nn(-c2cccc(Cl)c2)c2c1CCN(c1ccc3c(c1)C(=O)N(C)CC(=O)N3C)C2=O [Example 1375, 1-(3-chlorophenyl)-6-(1,4-dimethyl-2,5-dioxo-2,3,4,5-tetrahydro-1H-benzo[e][1,4]diazepin-7-yl)-N-ethyl-7-oxo-4,5,6,7-tetrahydro-1H-pyrazolo[3,4-c]pyridine-3-carboxamide]",3000 to 10000,> 40
"Cc1ccncc1CNC(=O)c1nn(-c2cccc(Cl)c2)c2c1CCN(c1ccc3c(c1)C(=O)N(CCCO)CCO3)C2=O [Example 1376, 1-(3-chlorophenyl)-6-(4-(3-hydroxypropyl)-5-oxo-2,3,4,5-tetrahydrobenzo[f][1,4]oxazepin-7-yl)-N-((4-methylpyridin-3-yl)methyl)-7-oxo-4,5,6,7-tetrahydro-1H-pyrazolo[3,4-c]pyridine-3-carboxamide]",10 to 100,3 to 10
"Cc1cc(CNC(=O)c2nn(-c3cccc(Cl)c3)c3c2CCN(c2ccc4c(c2)C(=O)N(CCCO)CCO4)C3=O)nn1C [Example 1377, 1-(3-chlorophenyl)-N-((1,5-dimethyl-1H-pyrazol-3-yl)methyl)-6-(4-(3-hydroxypropyl)-5-oxo-2,3,4,5-tetrahydrobenzo[f][1,4]oxazepin-7-yl)-7-oxo-4,5,6,7-tetrahydro-1H-pyrazolo[3,4-c]pyridine-3-carboxamide]",10 to 100,3 to 10
"Cc1cc(CNC(=O)c2nn(-c3cccc(Cl)c3)c3c2CCN(c2ccc4c(c2)C(=O)N(CCO)[C@@H](C)CO4)C3=O)nn1C [Example 1379, (S)-1-(3-chlorophenyl)-N-((1,5-dimethyl-1H-pyrazol-3-yl)methyl)-6-(4-(2-hydroxyethyl)-3-methyl-5-oxo-2,3,4,5-tetrahydrobenzo[f][1,4]oxazepin-7-yl)-7-oxo-4,5,6,7-tetrahydro-1H-pyrazolo[3,4-c]pyridine-3-carboxamide]",300 to 1000,3 to 10
"Cc1cc(CNC(=O)c2nn(-c3cccc(Cl)c3)c3c2CCN(c2ccc4c(c2)C(=O)N(CCO)[C@@H](C)CO4)C3=O)n[nH]1 [Example 1380, (S)-1-(3-chlorophenyl)-6-(4-(2-hydroxyethyl)-3-methyl-5-oxo-2,3,4,5-tetrahydrobenzo[f][1,4]oxazepin-7-yl)-N-((5-methyl-1H-pyrazol-3-yl)methyl)-7-oxo-4,5,6,7-tetrahydro-1H-pyrazolo[3,4-c]pyridine-3-carboxamide]",300 to 1000,10 to 40
"CCNC(=O)c1nn(-c2cccc(Cl)c2)c2c1CCN(c1ccc3c(c1)C(=O)N(CCO)[C@@H](C)CO3)C2=O [Example 1381, (S)-1-(3-chlorophenyl)-N-ethyl-6-(4-(2-hydroxyethyl)-3-methyl-5-oxo-2,3,4,5-tetrahydrobenzo[f][1,4]oxazepin-7-yl)-7-oxo-4,5,6,7-tetrahydro-1H-pyrazolo[3,4-c]pyridine-3-carboxamide]",1000 to 3000,> 40
"Cc1cc(CNC(=O)c2nn(-c3cccc(Cl)c3)c3c2CCN(c2ccc4c(c2)C(=O)N(CC(F)F)CCO4)C3=O)n[nH]1 [Example 1382, 1-(3-chlorophenyl)-6-(4-(2,2-difluoroethyl)-5-oxo-2,3,4,5-tetrahydrobenzo[f][1,4]oxazepin-7-yl)-N-((5-methyl-1H-pyrazol-3-yl)methyl)-7-oxo-4,5,6,7-tetrahydro-1H-pyrazolo[3,4-c]pyridine-3-carboxamide]",10 to 100,3 to 10
"Cc1cc(CNC(=O)CN2CCOc3ccc(N4CCc5c(C(=O)NCc6cc(C)n(C)n6)nn(-c6cccc(Cl)c6)c5C4=O)cc3C2=O)nn1C [Example 1383, 1-(3-chlorophenyl)-N-((1,5-dimethyl-1H-pyrazol-3-yl)methyl)-6-(4-(2-(((1,5-dimethyl-1H-pyrazol-3-yl)methyl)amino)-2-oxoethyl)-5-oxo-2,3,4,5-tetrahydrobenzo[f][1,4]oxazepin-7-yl)-7-oxo-4,5,6,7-tetrahydro-1H-pyrazolo[3,4-c]pyridine-3-carboxamide]",10 to 100,3 to 10
"CCNC(=O)c1nn(-c2cccc(Cl)c2)c2c1CCN(c1cccc(N3CC4(CC4)CC3=O)c1)C2=O [Example 1389, 1-(3-chlorophenyl)-N-ethyl-7-oxo-6-(3-(6-oxo-5-azaspiro[2.4]heptan-5-yl)phenyl)-4,5,6,7-tetrahydro-1H-pyrazolo[3,4-c]pyridine-3-carboxamide]",10000 to 40000,> 40
"CCNC(=O)c1nn(-c2cccc(Cl)c2)c2c1CCN(c1cccc(N3CCCN(C)C3=O)c1)C2=O [Example 1390, 1-(3-chlorophenyl)-N-ethyl-6-(3-(3-methyl-2-oxotetrahydropyrimidin-1(2H)-yl)phenyl)-7-oxo-4,5,6,7-tetrahydro-1H-pyrazolo[3,4-c]pyridine-3-carboxamide]",1000 to 3000,> 40
"CCNC(=O)c1nn(-c2cccc(Cl)c2)c2c1CCN(c1ccc3c(c1)C(=O)N(CCO)[C@H](C)CO3)C2=O [Example 1392, (R)-1-(3-chlorophenyl)-N-ethyl-6-(4-(2-hydroxyethyl)-3-methyl-5-oxo-2,3,4,5-tetrahydrobenzo[f][1,4]oxazepin-7-yl)-7-oxo-4,5,6,7-tetrahydro-1H-pyrazolo[3,4-c]pyridine-3-carboxamide]",3000 to 10000,> 40
"Cc1cc(CNC(=O)c2nn(-c3cccc(Cl)c3)c3c2CCN(c2ccc4c(c2)C(=O)N(CC(N)=O)CCO4)C3=O)nn1C [Example 1393, 6-(4-(2-amino-2-oxoethyl)-5-oxo-2,3,4,5-tetrahydrobenzo[f][1,4]oxazepin-7-yl)-1-(3-chlorophenyl)-N-((1,5-dimethyl-1H-pyrazol-3-yl)methyl)-7-oxo-4,5,6,7-tetrahydro-1H-pyrazolo[3,4-c]pyridine-3-carboxamide]",10 to 100,1 to 3
"Cc1c(Cl)c(CNC(=O)c2nn(-c3cccc(Cl)c3)c3c2CCN(c2ccc4c(c2)C(=O)N(CC(N)=O)CCO4)C3=O)nn1C [Example 1394, 6-(4-(2-amino-2-oxoethyl)-5-oxo-2,3,4,5-tetrahydrobenzo[f][1,4]oxazepin-7-yl)-N-((4-chloro-1,5-dimethyl-1H-pyrazol-3-yl)methyl)-1-(3-chlorophenyl)-7-oxo-4,5,6,7-tetrahydro-1H-pyrazolo[3,4-c]pyridine-3-carboxamide]",10 to 100,0.3 to 1

# The remaining lines, values ahead:
IC50 [1] [nM],IC50 (FXa) [µM],Compound
300 to 1000,> 40,"CN1CCc2ccc(N3CCc4c(C(=O)NCCF)nn(-c5cccc(Cl)c5)c4C3=O)cc2C1=O [Example 1384, 1-(3-chlorophenyl)-N-(2-fluoroethyl)-6-(2-methyl-1-oxo-1,2,3,4-tetrahydroisoquinolin-7-yl)-7-oxo-4,5,6,7-tetrahydro-1H-pyrazolo[3,4-c]pyridine-3-carboxamide]"
1000 to 3000,3 to 10,"CC(=O)NCc1nn(-c2cccc(Cl)c2)c2c1CCN(c1ccc3c(c1)C(=O)N(C)CC3)C2=O [Example 1385, N-((1-(3-chlorophenyl)-6-(2-methyl-1-oxo-1,2,3,4-tetrahydroisoquinolin-7-yl)-7-oxo-4,5,6,7-tetrahydro-1H-pyrazolo[3,4-c]pyridin-3-yl)methyl)acetamide]"
1000 to 3000,> 40,"CN1CCc2ccc(N3CCc4c(C(=O)NCCC(=O)O)nn(-c5cccc(Cl)c5)c4C3=O)cc2C1=O [Example 1386, 3-(1-(3-chlorophenyl)-6-(2-methyl-1-oxo-1,2,3,4-tetrahydroisoquinolin-7-yl)-7-oxo-4,5,6,7-tetrahydro-1H-pyrazolo[3,4-c]pyridine-3-carboxamido)propanoic acid]"
1000 to 3000,10 to 40,"C[C@@H](NC(=O)c1nn(-c2cccc(Cl)c2)c2c1CCN(c1ccc3c(c1)C(=O)N(C)CC3)C2=O)C(=O)O [Example 1387, (1-(3-chlorophenyl)-6-(2-methyl-1-oxo-1,2,3,4-tetrahydroisoquinolin-7-yl)-7-oxo-4,5,6,7-tetrahydro-1H-pyrazolo[3,4-c]pyridine-3-carbonyl)-D-alanine]"
300 to 1000,1 to 3,"CN1CCc2ccc(N3CCc4c(C#N)nn(-c5cccc(Cl)c5)c4C3=O)cc2C1=O [Example 1388, 1-(3-chlorophenyl)-6-(2-methyl-1-oxo-1,2,3,4-tetrahydroisoquinolin-7-yl)-7-oxo-4,5,6,7-tetrahydro-1H-pyrazolo[3,4-c]pyridine-3-carbonitrile]"
300 to 1000,> 40,"C[C@H](NC(=O)c1nn(-c2cccc(Cl)c2)c2c1CCN(c1ccc3c(c1)C(=O)N(C)CC3)C2=O)C(=O)O [Example 1391, (1-(3-chlorophenyl)-6-(2-methyl-1-oxo-1,2,3,4-tetrahydroisoquinolin-7-yl)-7-oxo-4,5,6,7-tetrahydro-1H-pyrazolo[3,4-c]pyridine-3-carbonyl)-L-alanine]"
